Legend:
Assay type in all cases: cell-based, Dickeya dadantii 3937 (Ech3937)
hrpL promoter = hrpL promoter activity, GFP reporter plasmid phrpL, flow cytometry (FACS); conditions: MM + 0.1 mM compound
Procedure: (§1) FACS analysis of promoter activity of dspE, hrpA, hrpL, hrpN, and hrpS was carried out as described (Peng et al., 2006). Briefly, the wild-type Ech3937 and the mutant strains carrying the promoter reporter plasmid were grown on LB broth at 28° C. overnight and transferred to appropriate media. For FACS analysis, samples were collected by centrifugation, washed with 1× phosphate buffer saline (PBS) at 13,000 rpm for 1 min, and re-suspended in 1×PBS to ca 10^6 CFU/ml prior to being run in a FACS Calibur flow cytometer (BD Biosciences, CA). Three replicates were performed for each treatment.
(§2) Since OCA and TCA induced the expression of hrpN, the effect of these two phenolic compounds on the expression of hrpA, hrpL, and hrpS was investigated further. […] GFP intensity was determined on gated populations of bacterial cells by flow cytometry and analyzed with the Cell Quest software (BD Biosciences, San Jose, Calif.). The lines labeled “1” stand for the GFP expression control base level of the Ech3937 containing pPROBE-AT vector; lines labeled “2” stand for the promoter activity of hrpS, hrpL, hrpA and hrpN in Ech3937 in MM; lines labeled “3” stand for the promoter activity of Ech3937 in MM supplemented with 0.1 mM OCA; lines labeled “4” stand for the promoter activity of hrpL mutant WPP96 in MM; lines labeled “5” stand for the promoter activity of hrpL mutant WPP96 in MM supplemented with 0.1 mM OCA. Values are representative of at least two experiments. […] Compared with MM alone, the average GFP fluorescence intensity of bacterial cells of Ech3937 (phrpA) was doubled when 0.1 mM of OCA and TCA were added to the medium (Table 4; FIG. 3). […] The mrp, whose protein product has an ATPase conserved domain (2e-06), was used as a reference gene in this study.

hrpN promoter = hrpN promoter activity, GFP reporter plasmid phrpN, flow cytometry (FACS)
rsmB mRNA = experiment: qRT-PCR relative mRNA level of rsmB; conditions: Ech3937 in supplemented MM vs MM alone (normalized to 1)
Procedure: Bacterial strains were grown in MM. Total RNA from the bacterial cells was isolated by using the TRI reagent method (Sigma, Mo.) and treated with Turbo DNA-free DNase kits (Ambion, TX) as described (Peng et al., 2006). An iScript cDNA Synthesis Kit (Bio-Rad, CA) was used to synthesize cDNA from 0.5 μg of treated total RNA. The Real Master Mix (Eppendorf, Westbury, N.Y.) was used for qRT-PCR reaction to quantify the cDNA level of target genes in different samples. The rplU was used as the endogenous control for data analysis. qRT-PCR data were analyzed using Relative Expression Software Tool as described (Pfaffl, M. W., Horgan, G. W., and Dempfle, L. (2002) Relative expression software tool (REST) for group-wise comparison and statistical analysis of relative expression results in real-time PCR. Nucleic Acids Res 30:e36.).

Ech3937 = experiment: Growth of Ech3937 in MM supplemented with compound; conditions: 0.05, 0.1 and 0.2 mM in MM (FIGS. 2A, 2B)
Text: Phenolic compounds constitute an important class of organic substances produced by plants. The phenolic compound SA is a signaling molecule that plays a role in host defenses. OCA and TCA are the biosynthetic precursors of SA and are also reported to induce the expression of defense-related genes in plants. OCA, TCA, and SA were examined to elucidate their effects on the expression of T3SS genes. The expression of the T3SS gene hrpN was examined in MM and MM supplemented with OCA, TCA, and SA, at concentrations of 0.05, 0.1, and 0.2 mM, respectively. FIGS. 2A and 2B show the promoter activities of hrpN in Dickeya dadantii 3937 (Ech3937) grown in MM and MM supplemented with 0.05, 0.1, and 0.2 mM OCA, TCA, and SA at 12 h (FIG. 2A) and 24 h (FIG. 2B) post-inoculation. GFP intensity was determined on gated populations of bacterial cells by flow cytometry and analyzed with the Cell Quest software (BD Biosciences, San Jose, Calif.). The growth of Ech3937 in MM supplemented with different concentrations of OCA, TCA and SA was recorded. Compared with MM alone, the average GFP fluorescence intensity of bacterial cells of Ech3937 (phrpN) was increased approximately 4-fold when 0.05 mM of OCA and TCA were added to the medium (FIGS. 2A, 2B).
The expression of the T3SS gene hrpA was further examined in MM and MM supplemented with PCA at concentrations of 0.001, 0.005, 0.01, 0.05 and 0.1 mM respectively. FIGS. 16A and 16B show the promoter activities of hrpA in Dickeya dadantii 3937 (Ech3937) grown in minimum medium (MM) and MM supplemented with different amount of p-coumaric acid (PCA) at 12 h (FIG. 16A) and 24 h (FIG. 16B) post-inoculation. GFP intensity was determined on gated populations of bacterial cells by flow cytometry and analyzed with the Cell Quest software (BD Biosciences, San Jose, Calif.). The growth of Ech3937 in MM supplemented with different concentrations of PCA was recorded. Compared with MM alone, the average GFP fluorescence intensity of bacterial cells of Ech3937 (phrpA) was reduced more than 4-fold when 0.05 and 0.1 mM of PCA were added to the medium (FIGS. 16A, 16B).

pPROBE-AT vector = experiment: GFP expression control base level, pPROBE-AT vector, flow cytometry (FACS); conditions: MM + 0.1 mM compound, 12 h (Table 4)
Procedure: as §1, §2

hrpA promoter = hrpA promoter activity, GFP reporter plasmid phrpA, flow cytometry (FACS)
Procedure: as §1
To identify potential compounds that repress activation of T3SS, analogs and isomers of TCA and intermediates of salicylic acid and phenypropanoid biosynthesis pathways in plants were further screened for their effect on Ech3937 hrpA expression by flow cytometry (Table 9). A green fluorescent protein (GFP) reporter plasmid phrpA (pProbe-AT derivative with PCR fragment containing hrpA promoter region) was constructed, resulting in a transcriptional fusion of hrpA promoter with GFP gene. Bacterial cells containing phrpA plasmid were grown in MM supplemented with 0.1 mM of each compound. GFP intensity, which is a measurement of hrpA promoter activity, was measured by flow cytometry.

hrpS promoter = hrpS promoter activity, GFP reporter plasmid phrpS, flow cytometry (FACS); conditions: MM + 0.1 mM compound
Procedure: as §1, §2

mrp promoter = experiment: mrp (reference gene) promoter activity, GFP reporter pmrp, flow cytometry (FACS); conditions: MM + 0.1 mM compound
Procedure: as §1, §2

[1] = hrpL mutant WPP96, 12 h (Table 4)
[2] = MM + 0.1 mM compound, 12 h (Table 4)
[3] = hrpL mutant WPP96, MM + 0.1 mM compound, 12 h (Table 4)

O=C(O)/C=C/c1ccccc1 [TCA, t-cinnamic acid]
promoter activity of hrpL compared with MM alone (hrpL promoter; Ech3937, 12 h): slightly higher promoter activity | GFP intensity (Mean Fluorescence Intensity) of Ech3937 (phrpL) (hrpL promoter; 12 h (Table 4)): 19 ± 1 | GFP intensity (Mean Fluorescence Intensity) of WPP96 (phrpL) (hrpL promoter; [1]): 331 ± 27 | increase of average GFP fluorescence intensity of Ech3937 (phrpN) compared with MM alone (hrpN promoter; 0.05 mM compound added to MM, 12 h and 24 h (FIGS. 2A, 2B)): approximately 4 fold | induction of hrpN expression in Ech3937 and in hrpX (WPP67), hrpY (WPP92), hrpS (WPP90) mutants (hrpN promoter; 0.1 mM compound in MM, 12 h (FIG. 5)): induced the expression of hrpN in Ech3937, but not in hrpX, hrpY, and hrpS mutants | GFP Intensity of Ech3937 (phrpN) (hrpN promoter; MM + 0.2 μM compound, 12 h): 65.1 ± 6.8 | GFP Intensity of Ech3937 (phrpN) (hrpN promoter; MM + 0.2 μM compound, 24 h): 163 ± 25 | GFP Intensity of Ech3937 (phrpN) (hrpN promoter; MM + 0.5 μM compound, 12 h): 73.4 ± 4.2 | GFP Intensity of Ech3937 (phrpN) (hrpN promoter; MM + 0.5 μM compound, 24 h): 158 ± 20 | GFP Intensity of Ech3937 (phrpN) (hrpN promoter; MM + 5 μM compound, 12 h): 134 ± 5.6 | GFP Intensity of Ech3937 (phrpN) (hrpN promoter; MM + 5 μM compound, 24 h): 266 ± 14 | GFP Intensity of Ech3937 (phrpN) (hrpN promoter; MM + 10 μM compound, 12 h): 147 ± 18 | GFP Intensity of Ech3937 (phrpN) (hrpN promoter; MM + 10 μM compound, 24 h): 284 ± 12 | GFP intensity (Mean Fluorescence Intensity) of Ech3937 (phrpN) (hrpN promoter; [2]): 103 ± 1 | GFP intensity (Mean Fluorescence Intensity) of WPP96 (phrpN) (hrpN promoter; [3]): 3.3 ± 0 | rsmB mRNA relative expression ratio (rsmB mRNA): 1.58 | bacterial growth of Ech3937 in supplemented MM (Ech3937): No reduction of bacterial growth | GFP intensity (Mean Fluorescence Intensity) of Ech3937 (pPROBE-AT) (pPROBE-AT vector): 1.9 ± 0 | average GFP fluorescence intensity of Ech3937 (phrpA) compared with MM alone (hrpA promoter; 0.1 mM compound, 12 h): doubled | expression of hrpA, GFP intensity (Mean Fluorescence Intensity), Ech3937 carrying phrpA (hrpA promoter; MM + 0.1 mM compound, 6 h (Table 9)): 22.3 ± 2.1 | GFP intensity (Mean Fluorescence Intensity) of Ech3937 (phrpA) (hrpA promoter; [2]): 78 ± 0 | expression of hrpA, GFP intensity (Mean Fluorescence Intensity), Ech3937 carrying phrpA (hrpA promoter; MM + 0.1 mM compound, 12 h (Table 9)): 133.9 ± 12.9 | expression of hrpA, GFP intensity (Mean Fluorescence Intensity), Ech3937 carrying phrpA (hrpA promoter; MM + 0.1 mM compound, 24 h (Table 9)): 203.7 ± 16.1 | GFP intensity (Mean Fluorescence Intensity) of WPP96 (phrpA) (hrpA promoter; [3]): 6.2 ± 0.6 | GFP intensity of Ech3937 (phrpS) compared with MM alone (hrpS promoter; 12 h): slightly lower GFP intensity | GFP intensity (Mean Fluorescence Intensity) of Ech3937 (phrpS) (hrpS promoter; 12 h (Table 4)): 54 ± 2 | GFP intensity (Mean Fluorescence Intensity) of WPP96 (phrpS) (hrpS promoter; [1]): 360 ± 16 | mrp expression in Ech3937 (pmrp) compared with MM (mrp promoter; 12 h): slightly higher mrp expression | GFP intensity (Mean Fluorescence Intensity) of Ech3937 (pmrp) (mrp promoter; reference gene, 12 h (Table 4)): 105 ± 0.3
